Patent publication US11225642B2, “Method for producing renal progenitor cells” (KYOTO UNIVERSITY, priority 2013, dated 2022)

Tested on: OSR1-GFP & SIX2-tdTomato reporter human iPS cell line (4A6C3-10)
Assay: SIX2-positive cell induction method 4, OSR1+SIX2+ cell rate by flow cytometer
Type: cell-based
Protocol: 4A6C3-10 was cultured at 37° C. in a 2% to 5% CO2 atmosphere to become 70% to 80% confluent on 10-cm dishes containing a primate ES medium (ReproCELL) supplemented with 500 U/ml penicillin/streptomycin (Invitrogen) and 5 ng/ml recombinant human basic fibroblast growth factor (bFGF, Wako) with the use of ICR-mouse-embryo (fetus 12.5 days old)-derived mouse embryonic fibroblasts (MEF) or SNL feeder cells (McMahon, A. P. and Bradley, A. (1990) Cell 62; 1073-1085) (these cells being previously treated with 15.5 μg/ml mitomycin (Kyowa Hakko Kirin Co., Ltd.) for 2 to 3 hours and seeded at a density of 2×10^5 cells/6-cm dish) as feeder cells. The 10-cm plates containing the cells were rinsed with PBS and treated with a CTK solution (PBS containing 0.25% Trypsin (Invitrogen), 0.1% Collagenase IV (Invitrogen), 20% KnockOut SR (KSR, Invitrogen), and 1 mM CaCl2) at 37° C. for 4 minutes. The CTK solution was removed by rinsing with PBS. Then, the medium was exchanged with DMEM/F12+Glutamax (Invitrogen) containing 0.1 mM MEM NEAA (Invitrogen), 1000 U/ml penicillin/streptomycin, 0.55 mM 2-mercaptoethanol (Invitrogen), and 20% KSR. Subsequently, the cells were scraped using a cell scraper and seeded on 6-cm plates coated with 0.2% gelatin to remove feeder cells. One hour later, the cells were washed with DMEM/F12+Glutamax [stage-1 medium] containing 500 U/ml penicillin/streptomycin and 2% FBS (HyClone), transferred to ultra-low attachment dishes (Corning 3471) having a stage-1 medium containing 100 ng/ml recombinant human/mouse/rat Activin A (R&D Systems) and 1 μM CHIR99021, and cultured at 37° C. in a 5% CO2 atmosphere for 2 days.
In order to differentiate into the intermediate mesoderm, the cell mass (embryoid body (EB)) obtained at stage 1 was transferred to a 24-well plate coated with Synthemax II (Corning), the medium was exchanged with DMEM/F12+Glutamax containing 0.1 mM MEM NEAA, 500 U/ml penicillin/streptomycin, 0.55 mM 2-mercaptoethanol, 10% KSR, 100 ng/ml BMP7 (recombinant human BMP7, R&D Systems), and 1 μM CHIR99021, and the cells were cultured at 37° C. in a 5% CO2 atmosphere for 3 days.
After stage 2, the medium was exchanged with DMEM/F12+Glutamax containing 0.1 mM MEM NEAA, 500 U/ml penicillin/streptomycin, 0.55 mM 2-mercaptoethanol, 10% KSR, 1 μM TTNPB (Sigma T3757), and 5 ng/ml TGFβ1 (Peprotech), followed by culturing at 37° C. in a 5% CO2 atmosphere for 5 days. The medium was exchanged with a medium having the same conditions two days after the start of culture (i.e., day 8 from the start of stage 1 (day 1)).
After stage 3, the medium was exchanged with DMEM/F12+Glutamax containing 0.1 mM MEM NEAA, 500 U/ml penicillin/streptomycin, 0.55 mM 2-mercaptoethanol, 10% KSR, 5 ng/ml TGFβ1, and 0.5 μM DMH1 (Tocris), followed by culturing at 37° C. in a 5% CO2 atmosphere for 17 days (i.e., culturing for 28 days in total from the start of stage 1 (day 1); FIG. 3A). In this case, the medium was exchanged every 3 days with a medium having the same conditions. […] In addition, the OSR1^+SIX2^+ cell rate reached the maximum level on day 25 of culture and then it was confirmed to be maintained until day 28 of culture (FIG. 3D).
Induction of OSR1^+SIX2^+ cells from the 4A6C3-10 iPS cell line was examined using different combinations of TGFβ signaling activators and BMP inhibitors. Specifically, induction of OSR1^+SIX2^+ cells from 4A6C3-10 was examined under conditions 1) to 10) described below. […]

TGFβ1: TGFβ signaling activator protein (Peprotech)
induction of OSR1+SIX2+ cells (Example 8, comparison of combinations of TGFβ signaling activators and BMP inhibitors at stage 4 (FIG. 4)): effective | OSR1-positive and SIX2-positive (OSR1+SIX2+) cell rate (induction method 4, stage 4 medium with 5 ng/ml TGFβ1 and 0.5 μM DMH1, day 28 of culture): 32.8%
